The subject of data set [1] is HIV-1 strain NL4-3 pseudovirus (D36G mutant). It is filed as cell-based. As for the experimental part:
(§1) The supernatant was discarded from the wells. […] Inhibition rate (%) and IC50 value were calculated.

Data set [2] has as its system 35 HIV-1 pseudoviruses (subtypes A, B, B', C, G, A/C, A/E, B/C). The conditions noted are these: for IC50: read-out: average IC50 for inhibition of various types of HIV-1 pseudoviruses, average over 35 pseudoviruses. The source says:
HIV-1 pseudovirus-mediated cell entry inhibition assay: basic steps included: (1) Preparation of HIV-1 pseudovirus: the 293T cells were co-transfected with a plasmid expressing the envelope protein (Env) of HIV-1 strain NL4-3 (i.e., a recombinant expression plasmid obtained by inserting the gene encoding the envelope protein (ENV) of the D36G mutant of the HIV-1 strain NL4-3 in the Table 2 of the Reference 14 listed in the Background Art into the vector pcDNA3.1(−)) and the HIV-1 backbone plasmid pSG3Δenv (provided by the AIDS Reagent Program of National Institutes of Health (NIH), catalog number: 11051) by using a cell transfection reagent, incubated in a cell incubator of 37° C. and 5% CO2 for 6 hours, and then the medium was changed, and the cells were further incubated for 48 hours. The cell culture supernatant containing pseudovirus particles was pipetted and filtered with a 0.45 μm filter to collect the supernatant, then 20% fetal bovine serum (FBS) was added thereto, the final solution was transferred to a polypropylene tube, and stored at −80° C. for ready for use or directly subjected to virus titration. (2) Titration of HIV-1 pseudovirus: the viruses were diluted by 5 folds in a 96-well plate, and 4 replicate wells with 8 gradients were set to a final volume of 100 microliters. The TZM-b1 cells were trypsinized and counted, and the cells were diluted to 1×10^5 cells/ml with DMEM complete medium; 100 μl of cells dilution (containing 15 μg/ml DEAE-dextran) per well were added and cultured at 37° C. and 5% CO2 for 48 hours. The 96-well plate was then taken from the cell culture incubator. The supernatant was discarded from the wells. To each well, 30 μl of a cell lysate was added, and after 10 minutes, 100 μl of a luciferase detection reagent was added. 100 μl of liquid was pipetted from each well and added to a corresponding 96-well white plate, and the luminescence values were read by a microplate photometer. The virus titer was calculated by the Reed-Muench method. (3) Antiviral activity assay: the test substance was dissolved in DMSO and diluted with a cell culture solution by 3 folds, and placed in a 96-well plate at a final volume of […]. 50 μl of a DMEM medium was used in place of the test substance as a negative control. To each well, 100 μl of TZM-b1 target cells solution (containing 15 μg/ml DEAE-dextran) at a concentration of 1×10^5 cells/ml was added, and then 50 μl (corresponding to 100 TCID50 per well) of the HIV-1 pseudovirus obtained above was added. After incubation at 37° C. and 5% CO2 for 48 hours, the relative light units (RLU) of each well were determined by using a luciferase detection reagent (Promega). Inhibition rate (%) and IC50 value were calculated.
Among them, the A, B and C subtypes were the main viruses causing AIDS epidemic in the world, while B/C and A/E recombinant viruses were the main viruses in China. […] Among the Env expression plasmids used for the preparation of pseudoviral, except that the Env expression plasmids used for preparation of PVO, Du156 and CAP 210.2.00.E8 were obtained from the AIDS Reagent Program of NIH in the United states, other plasmids were preserved by the laboratory of Prof. He Yuxian, Institute of Pathogen Biology, Chinese Academy of Medical Sciences, please see the References 13, 14 and 18 listed in the Background Art and articles of Chong et al. (Chong H, Yao X, Zhang C, Cai L, Cui S, Wang Y, He Y. Biophysical property and broad anti-HIV activity of Albuvirtide, a 3-maleimimidoproprotionic acid-modified peptide fusion inhibitor. PLoS One, 2012; 7 (3): e 32599). The preparation of the pseudovirus and the antiviral assay were the same as those in Example 2.1 of Example 2 (HIV-1 pseudovirus-mediated cell entry inhibition assay).

The subject of the next data set is NL4-3WT pseudovirus. The note with it: wild type NL4-3WT. An excerpt:
HIV-1 pseudovirus-mediated cell entry inhibition assay: basic steps included: (1) Preparation of HIV-1 pseudovirus: the 293T cells were co-transfected with a plasmid expressing the envelope protein (Env) of HIV-1 strain NL4-3 (i.e., a recombinant expression plasmid obtained by inserting the gene encoding the envelope protein (ENV) of the D36G mutant of the HIV-1 strain NL4-3 in the Table 2 of the Reference 14 listed in the Background Art into the vector pcDNA3.1(−)) and the HIV-1 backbone plasmid pSG3Δenv (provided by the AIDS Reagent Program of National Institutes of Health (NIH), catalog number: 11051) by using a cell transfection reagent, incubated in a cell incubator of 37° C. and 5% CO2 for 6 hours, and then the medium was changed, and the cells were further incubated for 48 hours. The cell culture supernatant containing pseudovirus particles was pipetted and filtered with a 0.45 μm filter to collect the supernatant, then 20% fetal bovine serum (FBS) was added thereto, the final solution was transferred to a polypropylene tube, and stored at −80° C. for ready for use or directly subjected to virus titration. […] The TZM-b1 cells were trypsinized and counted, and the cells were diluted to 1×10^5 cells/ml with DMEM complete medium; 100 μl of cells dilution (containing 15 μg/ml DEAE-dextran) per well were added and cultured at 37° C. and 5% CO2 for 48 hours. […]

For data set [3], the system named is NL4-3 pseudovirus carrying T-20 resistance mutation site of NHR. Description: inhibition of T-20 resistant strains. The conditions noted are these: strains with single or double mutations. It is filed as cell-based, HIV-1.
In data set [4] the test system is HIV-2 strain ROD (infectious). Description: inhibition of HIV-2. Type of data set: cell-based. The note with it: HIV-2 ROD. The protocol:
(§2) Inhibition rate (%) and IC50 value were calculated.
(§3) In order to further reflect the antiviral advantages of the potent lipopeptides of the present invention, their inhibitory activity against HIV-2 and SIV was determined in the example. The methods of antiviral activity assays used were described in the literatures published by the present inventors (see the References 13 and 30 listed in the Background Art). The molecular cloning plasmid pROD of the HIV-2 strain ROD (HIV-2ROD) was kindly provided by Professor Nuno Taveira from the University of Lisbon, Portugal, and the plasmids expressing the SIV strain SIVpbj (SIVPBJ) and SIV239 envelope proteins (pSIVpbj-Env and pSIV239, respectively) were kindly provided by Professor Xu Jianqing from the Fudan University. The preparation of the infectious ROD was the same as that of the infectious JRCSF in the above section 2.1, and the pseudoviruses SIVpbj and SIV239 were prepared by a method same as that described in the above Examples 2 and 3.

Data set [5] deals with SIV pseudoviruses SIVpbj and SIV239. Description: inhibition of SIV pseudoviruses. It is filed as cell-based. The protocol: as §1, §3
Data set [6] deals with HIV-1 strain NL4-3 (NL4-3D36G). Description: antiviral activity in serum of macaque after subcutaneous injection. Type of data set: in vivo, macaques (rhesus monkeys). The note with it: 3 mg/kg subcutaneous. As for the experimental part:
The specific method was as follows: 6 experimental macaques (rhesus monkeys) were selected, half male and half female, aged 3-4 years old, weighing 3.4-4.7 kg. […] The serum was separated according to a conventional method. The injection interval of each inhibitor was more than 2 weeks to ensure that there was no residue of the previous analyte. The serum activity against the HIV-1 strain NL4-3 (NL4-3D36G) was measured according to the experimental method of the pseudovirus-based assay in the above examples. The serum was diluted by 3 folds. […] Therefore, the lipopeptides of the present invention were not only potent but also were long-lasting effective.

In data set [7] the target is N39 (NHR-derived polypeptide of gp41) (Human immunodeficiency virus type 1 group M subtype B, UniProt P04578). Type of data set: binding, HIV-1. The conditions noted are these: 10 μM each, PBS pH 7.2. The protocol: (§4) The circular dichroism spectrophotometer was Jasco-815 by JASCO Inc., and the assay method was referred to the papers published by the inventors (see the References 18 and 30 listed in the Background Art). […] The N39 and an inhibitor were separately dissolved in a phosphate buffered saline (PBS) to prepare a PBS solution (pH 7.2) of a concentration of 20 μM. The N39 was mixed with an inhibitor at a volume ratio of 1:1 (final concentration of 10 μM for each), the mixed sample was placed at 37° C. for 30 minutes to fully react, and then the helix content and Tm value of the resultant complex were measured by the circular dichroism spectrophotometer. The scan wavelength range of the device was 195-260 nm with a wavelength interval of 1 nm, and the values measured by scanning for three times were averaged. Based on the CD signals, the interaction between the polypeptides and the helix content were determined. Then, the sample for CD signal measurement was transferred to the temperature scanning sample cell, the program of the CD device was set to temperature scanning with a detection wavelength of 220 nm and scanning range of 20-98° C., and the program scan was performed to obtain the curve of the CD signals vs temperature, based on which the Tm value was calculated. Based on the Tm value, the stability of the formed helical structure of the inhibitor and N39 was judged.
Sequence of N39 (NHR-derived polypeptide of gp41) (P04578 528-566): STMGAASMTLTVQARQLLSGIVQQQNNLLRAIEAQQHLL

Data set [8] can be described thus: circular dichroism secondary structure analysis of the inhibitors themselves. Type of data set: physicochemical. The conditions noted are these: 20 μM and 40 μM in PBS. The protocol: as §4
For easy analysis, the α-helix content and the Tm value of the inhibitors were measured at concentrations of 10 μM, 20 μM, and 40 μM (PBS solution), respectively.
On the technique in general: CD spectra are sensitive to the conformation of chiral molecules.

Data set [9] relates to HXB2-mediated cell fusion (HL2/3 effector cells, TZM-b1 target cells). It is filed as cell-based, HIV-1. The conditions noted are these: HXB2-mediated cell fusion; relative to T-20.
Description: HIV-1 mediated cell fusion inhibition assay: the effector cells (HL2/3 cells) and target cells (TZM-b1 cells) were provided by the AIDS Reagent Program of National Institutes of Health (NIH) (catalog numbers: 1294 and 8129, respectively). The both cells were adherent cells and were cultured in a DMEM cell culture medium containing ampicillin/streptomycin double antibiotics and 10% fetal bovine serum (FBS). The TZM-b1 was first added to a 96-well cell culture plate (1×10^4 cells/well), and cultured overnight at 37° C. and 5% CO2. The test substance was diluted with the DMEM cell culture medium by 3 folds and mixed with HL2/3 effector cells (3×10^4 cells/well), then added to the TZM-b1 target cells, and further cultured for 6 hours to fully fuse. The activity of luciferase (relative fluorescence units, RLU) was then determined using a luciferase reporter gene kit from Promega company according to the instructions. The inhibition rate of each sample at each concentration was calculated, and the half effective inhibitory concentration (IC50 value) was calculated using GraphPad Prism Software 2.01.
For the next data set, the system named is HIV-1 strain JRCSF. Type of data set: cell-based. The note with it: JRCSF replication; relative to T-20. The protocol:
as §2

Peptide text beside a SMILES is read from it. * marks the point of attachment. Palmitoyl = CCCCCCCCCCCCCCCC(=O)*

What is called IC50 is the concentration at which inhibition is half-maximal. With enfuvirtide, the IC50 in [1] (NL4-3D36G mutant, Example 4, read-out: IC50) was determined as 13.7 nM; in [2], 41.4 nM; with NL4-3WT pseudovirus, 152 nM. For the same molecule, in data set [3], the “inhibitory activity against T-20 resistant strains (in words)” value is on record as “significantly increased by several folds”. In data set [4], the “inhibitory activity against HIV-2 (in words)” value was “extremely weak”. In [5], the “inhibitory activity against SIV (in words)” value is “extremely weak”. Moreover, the “maximum serum dilution multiple for inhibiting 50% of NL4-3 infectivity” value in data set [6] (2 hour after injection) was determined as 45 folds; in data set [6] (4 hour after injection) it was 46 folds. The “helix content of the complex with N39” value in [7] is 48.6%. Further, in data set [8] (10 μM), the “secondary structure of the inhibitor itself (in words)” value was “irregular disorder structure”.

With `CCCCCCCCCCCCCCCC(=O)NCCCC[C@H](NC(=O)[C@H](CC(=O)O)NC(=O)[C@H](CC(C)C)NC(=O)[C@H](CCC(=O)O)NC(=O)[C@H](CC(C)C)NC(=O)[C@H](CC(C)C)NC(=O)[C@H](CCC(=O)O)NC(=O)[C@H](CCC(N)=O)NC(=O)[C@H](CCC(=O)O)NC(=O)[C@H](CC(N)=O)NC(=O)[C@H](CCCCN)NC(=O)[C@H](CCC(=O)O)NC(=O)[C@H](CCC(N)=O)NC(=O)[C@H](CCC(N)=O)NC(=O)[C@H](CC(N)=O)NC(=O)[C@H](CCC(N)=O)NC(=O)[C@H](CO)NC(=O)[C@H](CCC(=O)O)NC(=O)[C@H](CCC(=O)O)NC(=O)[C@@H](NC(=O)[C@H](CC(C)C)NC(=O)[C@H](CO)NC(=O)[C@H](Cc1c[nH]cn1)NC(=O)[C@@H](NC(=O)[C@H](CC(C)C)NC(=O)[C@H](CO)NC(=O)[C@@H](NC(=O)[C@H](Cc1ccc(O)cc1)NC(C)=O)[C@@H](C)O)[C@@H](C)CC)[C@@H](C)CC)C(N)=O` [LP-40] (Ac-YTSLIHSLIEESQNQQEKNEQELLELDK(Palmitoyl)-NH2), the “inhibitory activity as folds of that of T-20” value in [9] is reported as “about 59 folds”; in [1] (NL4-3 pseudovirus entry, relative to T-20), around 21 folds; in the data set on HIV-1 strain JRCSF, around 18 folds. Also, the IC50 in data set [2] was 6.37 nM. In addition, in data set [2] (relative to T-20, from average IC50), the “inhibitory activity against different subtypes of HIV-1 as folds of T-20” value is 7 folds. In addition, the “inhibitory activity against T-20 resistant strains (in words)” value in [3] is “had been improved”. In addition, the “inhibitory activity against HIV-2 (in words)” value in data set [4] is “only slightly improved”. In addition, in data set [5], the “inhibitory activity against SIV (in words)” value is listed as “only slightly improved”. In addition, the “Tm value of the complex with N39” value in data set [7] came out at 51.3 °C. In addition, in data set [7], the “helix content of the complex with N39” value is given as 57.7%. In [8], the “secondary structure of the inhibitor itself (in words)” value was “small amount of helical structure”.

The record behind these values is patent US11680086B2, “Lipopeptide for potently inhibiting HIV, derivative thereof, pharmaceutical composition thereof and use thereof” (Institute of Pathogen Biology, Chinese Academy of Medical …, priority 2017, dated 2023).
